From article PMC8079033, “Design, synthesis, anticancer evaluation, and molecular modelling studies of novel tolmetin derivatives as potential VEGFR-2 inhibitors and apoptosis inducers” (Journal of Enzyme Inhibition and Medicinal Chemistry, 2021)

Assays:
IGROV1 = assay: NCI 60-cell line one-dose antiproliferative screen (SRB); assay type: cell-based; settings: Homo sapiens, IGROV-1, read-out: growth inhibition % (GI%)
Experimental: (§1) Anticancer activity screening of the newly synthesised compounds was measured in vitro utilising 60 different human tumour cell lines provided by US National Cancer Institute according to previously reported standard procedure[41–43] as follows: Cells are inoculated into 96-well microtiter plates in 100 ml. After cell inoculation, the microtiter plates are incubated at 37 °C, 5% CO2, 95% air, and 100% relative humidity for 24 h prior to addition of experimental compounds. After 24 h, two plates of each cell line are fixed in situ with TCA, to represent a measurement of the cell population for each cell line at the time of compound addition (Tz). Experimental compounds are solubilised in dimethyl sulfoxide at 400-fold the desired final maximum test concentration and stored frozen prior to use. At the time of compound addition, an aliquot of frozen concentrate is thawed and diluted to twice the desired final maximum test concentration with a complete medium containing […] gentamicin. Aliquots of […] of the compounds dilutions are added to the appropriate microtiter wells already containing 100 ml of medium, resulting in the required final compound concentration. Following compound addition, the plates are incubated for an additional 48 h at 37 °C, 5% CO2, 95% air, and 100% relative humidity. For adherent cells, the assay is terminated by the addition of cold trichloroacetic acid (TCA). Cells are fixed in situ by the gentle addition of 50 ml of cold 50% (w/v) TCA (final concentration, 10% TCA) and incubated for […] at 4 °C. The supernatant is discarded, and the plates are washed five times with tap water and air-dried. Sulforhodamine B (SRB) solution (100 ml) at 0.4% (w/v) in 1% acetic acid is added to each well, and plates are incubated for 10 min at room temperature. After staining, the unbound dye is removed by washing five times with 1% acetic acid and the plates are air-dried. The bound stain is subsequently solubilised with a 10 mM trizma base, and the absorbance is read on an automated plate reader at a wavelength of 515 nm. For suspension cells, the methodology is the same except that the assay is terminated by fixing settled cells at the bottom of the wells by gently adding 50 ml of 80% TCA (final concentration, 16% TCA). Using the absorbance measurements [time zero, (Tz), control growth, (C), and test growth in the presence of compound (Ti)], the percentage growth is calculated for each compound. The One-dose data are reported as a mean graph of the percent growth of treated cells. The reported number is growth relative to the no-compound control, and relative to the time zero number of cells. This allows the detection of both growth inhibition and lethality.
(§2) Fifteen newly synthesised compounds were tested for their in vitro antiproliferative activity by the National Cancer Institute (NCI), Maryland, USA[50], under the Developmental Therapeutic Program (DTP)[41]^,[43]^,[51]^,[52]. The tested compounds were evaluated at a concentration of 10 µM on a panel of 60 tumour cell lines representing leukaemia and non-small cell lung, colon, CNS, melanoma, ovarian, renal, prostate, and breast cancers. The antiproliferative activity was presented by the NCI as percent growth of the treated cells and is presented in Table 1 as growth inhibition percentage (GI%) achieved by the tested compounds.

LOX IMVI = assay: as above; assay type: cell-based; settings: Homo sapiens, read-out: growth inhibition % (GI%)
Experimental: as §1, §2

NCI-H322M = assay: as above; assay type: cell-based; settings: Homo sapiens, read-out: growth inhibition % (GI%)
Experimental: as §1, §2

MDA-MB-231/ATCC = assay: as above; assay type: cell-based; settings: Homo sapiens, read-out: growth inhibition % (GI%)
Experimental: as §1, §2

T-47D = assay: as above; assay type: cell-based; settings: Homo sapiens, T47D, read-out: growth inhibition % (GI%)
Experimental: as §1, §2

HCT-15 = assay: as above; assay type: cell-based; settings: Homo sapiens, read-out: growth inhibition % (GI%)
Experimental: as §1, §2

OVCAR-8 = assay: as above; assay type: cell-based; settings: Homo sapiens, read-out: growth inhibition % (GI%)
Experimental: as §1, §2

SNB-75 = assay: as above; assay type: cell-based; settings: Homo sapiens, read-out: growth inhibition % (GI%)
Experimental: as §1, §2

SW-620 = assay: as above; assay type: cell-based; settings: Homo sapiens, read-out: growth inhibition % (GI%)
Experimental: as §1, §2

HS 578 T = assay: as above; assay type: cell-based; settings: Homo sapiens, read-out: growth inhibition % (GI%)
Experimental: as §1, §2

CAKI-1 = assay: as above; assay type: cell-based; settings: Homo sapiens, read-out: growth inhibition % (GI%)
Experimental: as §1, §2

SK-OV-3 = assay: as above; assay type: cell-based; settings: Homo sapiens, read-out: growth inhibition % (GI%)
Experimental: as §1, §2

SF-268 = assay: as above; assay type: cell-based; settings: Homo sapiens, read-out: growth inhibition % (GI%)
Experimental: as §1, §2

BT-5 = assay: as above; assay type: cell-based; settings: Homo sapiens, read-out: growth inhibition % (GI%)
Experimental: as §1, §2

MCF7 = assay: as above; assay type: cell-based; settings: Homo sapiens, read-out: growth inhibition % (GI%)
Experimental: as §1, §2

MDA-MB-435 = assay: as above; assay type: cell-based; settings: Homo sapiens, read-out: growth inhibition % (GI%)
Experimental: as §1, §2

SNB-19 = assay: as above; assay type: cell-based; settings: Homo sapiens, read-out: growth inhibition % (GI%)
Experimental: as §1, §2

K-562 = assay: as above; assay type: cell-based; settings: Homo sapiens, K562, read-out: growth inhibition % (GI%)
Experimental: as §1, §2

MOLT-4 = assay: as above; assay type: cell-based; settings: Homo sapiens, read-out: growth inhibition % (GI%)
Experimental: as §1, §2

ACHN = assay: as above; assay type: cell-based; settings: Homo sapiens, read-out: growth inhibition % (GI%)
Experimental: as §1, §2

SK-MEL-28 = assay: as above; assay type: cell-based; settings: Homo sapiens, read-out: growth inhibition % (GI%)
Experimental: as §1, §2

HOP-62 = assay: as above; assay type: cell-based; settings: Homo sapiens, read-out: growth inhibition % (GI%)
Experimental: as §1, §2

HL-60 (TB) = assay: as above; assay type: cell-based; settings: Homo sapiens, read-out: growth inhibition % (GI%)
Experimental: as §1, §2

CCRF-CEM = assay: as above; assay type: cell-based; settings: Homo sapiens, read-out: growth inhibition % (GI%)
Experimental: as §1, §2

KM12 = assay: as above; assay type: cell-based; settings: Homo sapiens, read-out: growth inhibition % (GI%)
Experimental: as §1, §2

PC-3 = assay: as above; assay type: cell-based; settings: Homo sapiens, read-out: growth inhibition % (GI%)
Experimental: as §1, §2

NCI-H226 = assay: as above; assay type: cell-based; settings: Homo sapiens, read-out: growth inhibition % (GI%)
Experimental: as §1, §2

SK-MEL-2 = assay: as above; assay type: cell-based; settings: Homo sapiens, read-out: growth inhibition % (GI%)
Experimental: as §1, §2

A549/ATCC = assay: as above; assay type: cell-based; settings: Homo sapiens, read-out: growth inhibition % (GI%)
Experimental: as §1, §2

NCI/ADR-RES = assay: as above; assay type: cell-based; settings: Homo sapiens, read-out: growth inhibition % (GI%)
Experimental: as §1, §2

EKVX = assay: as above; assay type: cell-based; settings: Homo sapiens, read-out: growth inhibition % (GI%)
Experimental: as §1, §2

HCT-116 = assay: as above; assay type: cell-based; settings: Homo sapiens, read-out: growth inhibition % (GI%)
Experimental: as §1, §2

U251 = assay: as above; assay type: cell-based; settings: Homo sapiens, U-251, read-out: growth inhibition % (GI%)
Experimental: as §1, §2

A498 = assay: as above; assay type: cell-based; settings: Homo sapiens, read-out: growth inhibition % (GI%)
Experimental: as §1, §2

SN 12 C = assay: as above; assay type: cell-based; settings: Homo sapiens, SN12C, read-out: growth inhibition % (GI%)
Experimental: as §1, §2

NCI-H23 = assay: as above; assay type: cell-based; settings: Homo sapiens, read-out: growth inhibition % (GI%)
Experimental: as §1, §2

NCI-H522 = assay: as above; assay type: cell-based; settings: Homo sapiens, read-out: growth inhibition % (GI%)
Experimental: as §1, §2

SK-MEL-5 = assay: as above; assay type: cell-based; settings: Homo sapiens, read-out: growth inhibition % (GI%)
Experimental: as §1, §2

M14 = assay: as above; assay type: cell-based; settings: Homo sapiens, read-out: growth inhibition % (GI%)
Experimental: as §1, §2

UO-31 = assay: as above; assay type: cell-based; settings: Homo sapiens, read-out: growth inhibition % (GI%)
Experimental: as §1, §2

## Cc1ccc(C(=O)c2ccc(CC(=O)NN3C(=O)c4ccccc4C3=O)n2C)cc1 [Compound 7c, N-(1,3-Dioxoisoindolin-2-yl)-2–(1-methyl-5–(4-methylbenzoyl)-1H-pyrrol-2-yl) acetamide]
other
  melting point: > 300 °C
IGROV1
  inhibition at 10 µM: 14.8%
LOX IMVI
  inhibition at 10 µM: 10.2%
NCI-H322M
  inhibition at 10 µM: < 10%
MDA-MB-231/ATCC
  inhibition at 10 µM: < 10%
T-47D
  inhibition at 10 µM: 25.5%
HCT-15
  inhibition at 10 µM: < 10%
OVCAR-8
  inhibition at 10 µM: < 10%
SNB-75
  inhibition at 10 µM: 17.9%
SW-620
  inhibition at 10 µM: < 10%
HS 578 T
  inhibition at 10 µM: < 10%
CAKI-1
  inhibition at 10 µM: < 10%
SK-OV-3
  inhibition at 10 µM: < 10%
SF-268
  inhibition at 10 µM: < 10%
BT-5
  inhibition at 10 µM: < 10%
MCF7
  inhibition at 10 µM: < 10%
MDA-MB-435
  inhibition at 10 µM: < 10%
SNB-19
  inhibition at 10 µM: < 10%
K-562
  inhibition at 10 µM: < 10%
MOLT-4
  inhibition at 10 µM: 10.6%
ACHN
  inhibition at 10 µM: < 10%
SK-MEL-28
  inhibition at 10 µM: < 10%
HOP-62
  inhibition at 10 µM: < 10%
HL-60 (TB)
  inhibition at 10 µM: < 10%
CCRF-CEM
  inhibition at 10 µM: < 10%
KM12
  inhibition at 10 µM: < 10%
PC-3
  inhibition at 10 µM: < 10%
NCI-H226
  inhibition at 10 µM: < 10%
SK-MEL-2
  inhibition at 10 µM: < 10%
A549/ATCC
  inhibition at 10 µM: 14%
NCI/ADR-RES
  inhibition at 10 µM: < 10%
EKVX
  inhibition at 10 µM: 24.5%
HCT-116
  inhibition at 10 µM: < 10%
U251
  inhibition at 10 µM: < 10%
A498
  inhibition at 10 µM: 13.3%
SN 12 C
  inhibition at 10 µM: < 10%
NCI-H23
  inhibition at 10 µM: < 10%
NCI-H522
  inhibition at 10 µM: 14.4%
SK-MEL-5
  inhibition at 10 µM: < 10%
M14
  inhibition at 10 µM: < 10%
UO-31
  inhibition at 10 µM: 27.3%
